Source: patent US20210052524A1, “N-ACETYLCYSTEINE AND UREA-BASED FORMULATION FOR THE TREATMENT OF DERMATOLOGICAL DISORDERS” (DERMALENA DI CALDERAN ANDREA, priority 2017, published 2021)

Assays:
[1] = tested on: complex regional pain syndrome type I; conditions: 50% DMSO applied topically, N-acetylcysteine taken orally; cited from earlier work
[2] = Stability of the active ingredients in the formulation buffered to pH 5.5-6.5; format: physicochemical; conditions: pH 5.5-6.5 (lactic acid neutralized with sodium hydroxide) compared to more acidic or more basic conditions
Excerpt: Preferably, the present formulation for topical use is in the form of a cream or a lotion, and preferably has a pH between 5.5 and 6.5, advantageously about 6.

[3] = tested on: abdominal incisional wound subjected to radiation; conditions: oral and intra-peritoneal administration, model subjected to radiation; cited from earlier work

Compound	efficacy in the treatment of complex regional pain syndrome type I [1]	stability [2]	effect on histological, biochemical and mechanical parameters of incisional wound healing [3]
C[S+](C)[O-] [50% DMSO, DMSO]	equally efficient		
NC(N)=O [urea]		improved	
CC(=O)N[C@@H](CS)C(=O)O [N-acetylcysteine]	equally efficient	improved	effectiveness
